Here are results for 31 compounds from patent US9428456B2, “1-[m-carboxamido(hetero)aryl-methyl]-heterocyclyl-carboxamide derivatives” (Actelion Pharmaceuticals Ltd., priority 2012, dated 2016).

The target in this test is CXCR7 (Homo sapiens (Human), UniProt P25106). The test can be described thus: PathHunter CHO-K1 CXCR7 b-arrestin assay (agonistic activity). Type of test: cell-based. The conditions noted are these: PathHunter CHO-K1 CXCR7 b-arrestin cell line. The method, boiled down: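 CHO-K1 cells co-expressing ProLink-tagged CXCR7 and EA-fused β-arrestin 2 (enzyme fragment complementation); compounds added in HBSS/20 mM HEPES/0.2% BSA after 3–4 h in OPTIMEM, 90 min at 37 °C. Chemiluminescent β-gal signal read after 1 h detection at room temperature; EC50 reported as geometric mean of several measurements.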
Chain of CXCR7 (P25106 whole entry, the tested form may be a part): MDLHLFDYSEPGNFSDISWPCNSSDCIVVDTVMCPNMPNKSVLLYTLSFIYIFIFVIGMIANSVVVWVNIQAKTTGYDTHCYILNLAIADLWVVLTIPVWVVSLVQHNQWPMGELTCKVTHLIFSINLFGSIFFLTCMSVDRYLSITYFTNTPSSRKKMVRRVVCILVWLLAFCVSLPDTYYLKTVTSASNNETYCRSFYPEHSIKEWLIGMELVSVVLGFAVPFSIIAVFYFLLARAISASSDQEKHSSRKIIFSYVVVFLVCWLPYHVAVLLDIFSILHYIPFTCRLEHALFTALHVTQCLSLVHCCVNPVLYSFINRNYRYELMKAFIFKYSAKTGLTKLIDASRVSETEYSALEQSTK
Chain of CXCR7 (P32121 whole entry partner, the tested form may be a part): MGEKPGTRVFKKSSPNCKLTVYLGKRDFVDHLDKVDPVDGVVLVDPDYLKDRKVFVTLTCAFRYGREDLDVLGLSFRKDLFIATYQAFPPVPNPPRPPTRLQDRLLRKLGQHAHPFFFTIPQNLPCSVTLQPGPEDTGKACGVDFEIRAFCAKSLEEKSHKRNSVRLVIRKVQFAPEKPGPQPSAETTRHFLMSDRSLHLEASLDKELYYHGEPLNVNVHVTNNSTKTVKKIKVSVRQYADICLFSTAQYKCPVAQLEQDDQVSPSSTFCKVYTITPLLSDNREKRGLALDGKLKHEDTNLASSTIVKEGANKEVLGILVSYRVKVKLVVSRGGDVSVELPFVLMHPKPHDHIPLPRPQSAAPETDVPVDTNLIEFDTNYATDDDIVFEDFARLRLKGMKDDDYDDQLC
The EC50 is the midpoint of the concentration-response curve. A higher EC50 goes with weaker potency. For the compound `CC(C)(C)NC(=O)C1CCN(Cc2cccc(NC(=O)c3ccc(Cl)cn3)c2)CC1` [Example 1.339], the EC50 is 0.6 nM.

Compound `CC(C)(C)NC(=O)C1CCN(Cc2cccc(NC(=O)c3ncc(Cl)cc3F)c2)CC1` [Example 1.340] registered a 50% effective concentration (EC50) of 0.7 nM.

Consider `CCC(C)(C)NC(=O)C1CCN(Cc2cccc(NC(=O)c3ccc(C(F)(F)F)cn3)c2)CC1` [Example 1.341], for which a half-maximal response (EC50) required 1 nM.

`CN(C)C/C=C/C(=O)Nc1cccc(CN2CCC(C(=O)NC(C)(C)C)CC2)c1` [Example 1.342] yielded an EC50 of 216 nM.

The compound `CCC(C)(C)NC(=O)C1CCN(Cc2cccc(NC(=O)c3ncc(Cl)cc3F)c2)CC1` [Example 1.343] yielded an EC50 of 1 nM. This EC50 is about 220-fold lower than that of the compound before.

Consider `CC(C)(C)NC(=O)C1CCN(Cc2cccc(NC(=O)c3cccc(Br)n3)c2)CC1` [Example 1.344], for which the EC50 was found to be 0.9 nM.

The compound `CC(C)(C)NC(=O)C1CCN(Cc2cccc(NC(=O)c3cccc(C(F)(F)F)[n+]3[O-])c2)CC1` [Example 1.345] displayed a 50% effective concentration (EC50) of 1 nM.

`CCC(C)(C)NC(=O)C1CCN(Cc2cccc(NC(=O)c3cccc(C(F)(F)F)[n+]3[O-])c2)CC1` [Example 1.346] showed a half-maximal effective concentration (EC50) of 1 nM.

For `CCC(C)(C)NC(=O)C1CCN(Cc2cccc(NC(=O)c3ccc(C(F)(F)F)c[n+]3[O-])c2)CC1` [Example 1.347], the EC50 was 16 nM.

With `CC(C)(C)NC(=O)C1CCN(Cc2cccc(NC(=O)c3ccc(C(F)(F)F)c[n+]3[O-])c2)CC1` [Example 1.348], the EC50 amounted to 8 nM.

Compound `COC(=O)c1cncc(C(=O)Nc2cccc(CN3CCC(C(=O)NC(C)(C)C)CC3)c2)c1` [Example 1.349] yielded an EC50 of 34 nM.

`COC(=O)c1cncc(C(=O)Nc2cccc(CN3CCC(C(=O)NC4CCCCC4)CC3)c2)c1` [Example 1.350] returned an EC50 of 29 nM. This EC50 and that of the compound before are within 1.5-fold of each other.

In turn, `CC(C)(C)NC(=O)C1CCN(Cc2cccc(NC(=O)c3ccc(S(C)(=O)=O)cc3)c2)CC1` [Example 1.351] displayed an EC50 of 176 nM.

Consider `CC(C)(C)NC(=O)C1CCN(Cc2cccc(NC(=O)c3cccc(S(C)(=O)=O)c3)c2)CC1` [Example 1.352], for which the midpoint of the response, the EC50, lay at 71 nM. This EC50 is about 2.5-fold lower than that of the compound before.

Turning to `CC(C)(C)NC(=O)C1CCN(Cc2cccc(NC(=O)c3ccc4ncsc4c3)c2)CC1` [Example 1.353], it took 3 nM to reach a half-maximal effect (EC50).

Compound `Cc1nc2cc(C(=O)Nc3cccc(CN4CCC(C(=O)NC(C)(C)C)CC4)c3)ccc2s1` [Example 1.354] came in with an EC50 of 108 nM.

With `CC(C)(C)NC(=O)C1CCN(Cc2cccc(NC(=O)c3ccc4snnc4c3)c2)CC1` [Example 1.355], the EC50 turned out to be 3 nM.

`C[C@H]1C[C@@H](C(=O)NC2CCCCC2)CCN1Cc1cccc(NC(=O)c2cccc(C(F)(F)F)n2)c1` [Example 2.105, 6-Trifluoromethyl-pyridine-2-carboxylic acid [3-((2S,4S)-4-cyclohexylcarbamoyl-2-methyl-piperidin-1-ylmethyl)-phenyl]-amide or 6-trifluoromethyl-pyridine-2-carboxylic acid [3-((2R,4R)-4-cyclohexylcarbamoyl-2-methyl-piperidin-1-ylmethyl)-phenyl]-amide] returned an EC50 of 3 nM.

Take `C[C@@H]1C[C@H](C(=O)NC2CCCCC2)CCN1Cc1cccc(NC(=O)c2cccc(C(F)(F)F)n2)c1` [Example 2.106, 6-Trifluoromethyl-pyridine-2-carboxylic acid [3-((2R,4R)-4-cyclohexylcarbamoyl-2-methyl-piperidin-1-ylmethyl)-phenyl]-amide or 6-trifluoromethyl-pyridine-2-carboxylic acid [3-((2S,4S)-4-cyclohexylcarbamoyl-2-methyl-piperidin-1-ylmethyl)-phenyl]-amide]: the EC50 worked out at 49 nM.

Turning to `COc1cncc(C(=O)Nc2cccc(CN3CCC(C(=O)NC(C)(C)C)CC3)c2)c1` [Example 4.014, N-[3-(4-tert-Butylcarbamoyl-piperidin-1-ylmethyl)-phenyl]-5-methoxy-nicotinmide], the EC50 is 8 nM.

`CC(C)(C)NC(=O)C1CCN(Cc2cccc(NC(=O)c3ccc(F)cn3)c2)CC1` [Example 4.020, 5-Fluoro-pyridine-2-carboxylic acid [3-(4-tert-butylcarbamoyl-piperidin-1-ylmethyl)-phenyl]-amide]: the EC50 was determined as 0.6 nM.

As to `CCC(C)(C)NC(=O)C1CCN(Cc2cccc(NC(=O)c3ccc(F)c[n+]3[O-])c2)CC1` [Example 4.021, 5-Fluoro-1-oxy-pyridine-2-carboxylic acid {3-[4-(1,1-dimethyl-propylcarbamoyl)-piperidin-1-ylmethyl]-phenyl}amide], the midpoint of the response, the EC50, lay at 2 nM.

`Cc1cc(C(=O)Nc2cccc(CN3CCC(C(=O)NC(C)(C)C)CC3)c2)c[n+]([O-])c1` [Example 4.022, N-[3-(4-tert-Butylcarbamoyl-piperidin-1-ylmethyl)-phenyl]-5-methyl-1-oxy-nicotinamide] gave a half-maximal effective concentration (EC50) of 234 nM.

For `CCC(C)(C)NC(=O)C1CCN(Cc2cccc(NC(=O)c3cc(C)c[n+]([O-])c3)c2)CC1` [Example 4.023, N-{3-[4-(1,1-Dimethyl-propylcarbamoyl)-piperidin-1-ylmethyl]-phenyl}-5-methyl-1-oxy-nicotinamide], a half-maximal effect (EC50) was put at 173 nM.

Compound `CC(C)(C)NC(=O)C1CCN(Cc2cccc(NC(=O)c3ccc(Cl)c[n+]3[O-])c2)CC1` [Example 4.024, 5-Chloro-1-oxy-pyridine-2-carboxylic acid [3-(4-tert-butylcarbamoyl-piperidin-1-ylmethyl)-phenyl]-amide] displayed an EC50 of 3 nM.

The compound `CCC(C)(C)NC(=O)C1CCN(Cc2cccc(NC(=O)c3ccc(Cl)c[n+]3[O-])c2)CC1` [Example 4.025, 5-Chloro-1-oxy-pyridine-2-carboxylic acid {3-[4-(1,1-dimethyl-propylcarbamoyl)-piperidin-1-ylmethyl]-phenyl}amide] returned a half-maximal effective concentration (EC50) of 2 nM.

As to `Cc1cncc(C(=O)Nc2cccc(CN3CCC(C(=O)NC4CCCCC4)CC3)c2)c1` [Example 6.001, N-(3-((4-(cyclohexylcarbamoyl)piperidine-1-yl)d2methyl)phenyl)-5-methylnicotinamide], the EC50 worked out at 5 nM.

`Cc1cncc(C(=O)Nc2cccc(CN3CCC(C(=O)NC4CCCC4)CC3)c2)c1` [Example 6.002, N-(3-((4-(cyclopentylcarbamoyl)piperidin-1-yl)d2methyl)phenyl)-5-methylnicotinamide] yielded an EC50 of 4 nM. The EC50 values of the last two compounds are within 1.5-fold of each other.

Compound `Cc1cc(C(=O)Nc2cccc(CN3CCC(C(=O)NC(C)(C)C)CC3)c2)cnn1` [Example 7.001, 6-Methyl-pyridazine-4-carboxylic acid [3-(4-tert-butylcarbamoyl-piperidin-1-ylmethyl)-phenyl]-amide] returned an EC50 of 62 nM.

`CC(C)(C)NC(=O)C1CCN(Cc2cccc(NC(=O)c3ccc(N)cn3)c2)CC1` [Example 8.001, 5-Amino-pyridine-2-carboxylic acid [3-(4-tert-butylcarbamoyl-piperidin-1-ylmethyl)-phenyl]-amide] registered an EC50 of 4 nM.

In the case of “rac-6-Trifluoromethyl-pyridine-2-carboxylic acid [3-((2S*,4S*)-4-cyclohexylcarbamoyl-2-methyl-piperidin-1-ylmethyl)-phenyl]-amide [Example 2.101]”, the concentration giving a half-maximal response (EC50) came to 5 nM.
